Measurements: the NIST ThermoML archive (doi:10.1016/j.fluid.2018.04.021)
Numbers after ± are expanded uncertainties.

details: Liquid; flow method with low residence time

Row | SMILES | Critical pressure | Critical temperature
1 | C1CCCCC1 [cyclohexane] | 4074 ± 36 kPa | 553.6 ± 0.4 K
2 | CCOC(=O)OCC [diethyl carbonate] | 3346 ± 30 kPa | 578.1 ± 0.4 K
3 | CCO [ethanol] | 6141 ± 51 kPa | 514 ± 0.4 K
4 | CCCCCCC [heptane] | 2736 ± 25 kPa | 540.1 ± 0.4 K
5 | CCCCCC [hexane] | 3033 ± 27 kPa | 507.8 ± 0.4 K
6 | CCCCCCCC [octane] | 2496 ± 24 kPa | 568.9 ± 0.4 K
